# In article PMC10108276, “Siderophore‐Linked Ruthenium Catalysts for Targeted Allyl Ester Prodrug Activation within Bacterial Cells” (Chemistry (Weinheim an Der Bergstrasse, Germany), 2022):
# Like-named read-outs stand apart in the source and are kept apart here.
# Experiments:
# [1] = system: HeLa; assay: MTT-based proliferation assay, HeLa; type: cell-based, human; conditions: 48 h
# Excerpt: (§1) 7. Cytotoxicity against Mammalian Cells
# (§2) 7.1. Cell viability assays for Moxi, C-Moxi and Ru-s4
# (§3) Dulbecco’s Modified Eagle’s Medium (DMEM: [+] 4.5 g/L D-Glucose, L-Glutamine; [-]
# (§4) Pyruvate), containing 10% fetal calf serum, 1% penicillin and streptomycin, was used
# (§5) as growth medium for HeLa cells. DMEM ([+] 1 g/L D-Glucose; [+] Pyruvate),
# (§6) containing 10% fetal calf serum, 1% penicillin and streptomycin, was respectively used
# (§7) for GM5657 cells. HeLa and GM5657 cells were detached from the wells with trypsin
# (§8) and EDTA, harvested by centrifugation and resuspended in the respective cell culture
# (§9) medium. The assays were carried out on 96 well plates with a density of 6000 cells
# (§10) per well. After 24 h of incubation at 37°C and 10% CO2, the cells were treated with
# (§11) Moxi, C-Moxi and Ru-s4 (constant DMSO concentrations of 0.5%) with a final volume
# (§12) of 200 µL per well. For a negative control, one series of cells were only treated with
# (§13) 0.5% DMSO, and for a positive control, one series was treated with cisplatin. After 48
# (§14) h of incubation, 50 µL PBS containing MTT (2.5 mg/mL) was added. The cells were
# (§15) incubated for an additional 2 h. Afterwards, the medium was removed, and 200 µL of
# (§16) DMSO were added. The formazan crystal absorption was measured at 550 nm, using
# (§17) a reference wavelength of 650 nm. Each assay was carried out in triplicates (three
# (§18) independent experiments) for each cell line, Table S3.
# [2] = system: GM5657; assay: MTT-based proliferation assay, GM5657; type: cell-based, human; conditions: 48 h
# Excerpt: as §1, §2, §3, §4, §5, §6, §7, §8, §9, §10, §11, §12, §13, §14, §15, §16, §17, §18
# [3] = system: E. coli K12 (BW25113); assay: prodrug uptake assay (incubation, HPLC of extracellular and wash samples); type: cell-based, Escherichia coli
# [4] = system: E. coli K12 (BW25113); assay: antibacterial activity (dosage-response, 24 h) under iron-limited, micro-aerobic conditions
# [5] = solubility as observed in the assays; type: physicochemical
# [6] = system: E. coli K12 (BW25113); assay: catalyst-prodrug co-addition growth assay (24 h) with siderophore controls; conditions: without C‐moxi, MHII + 200 μM bpy, 2 % O2, 24 h
# [7] = system: E. coli K12 (BW25113); assay: effect of catalyst-siderophore conjugates on bacterial growth (dose-response, 24 h); conditions: at 10 μM, MHII + 200 μM bpy, 2 % O2, 24 h
# [8] = system: E. coli K12 (BW25113); assay: prodrug incubation experiment: C-moxi preloading, washing, catalyst addition (18 h); conditions: substrate at upper nontoxic concentration
# [9] = Mean of three runs, tested range 0.05–100 μM
# [10] = C-moxi 10 µM, relative to 'no cell' controls
# [11] = MHII + 200 μM bpy, 2 % O2, 37 °C, 24 h
Compound,"IC50 [1, 9] [µM]",IC50 ([1]; Run 2) [µM],IC50 ([1]; Run 3) [µM],"IC50 [2, 9] [µM]",IC50 ([2]; Run 2) [µM],IC50 ([2]; Run 3) [µM],"effect on growth relative to the no addition control, substance alone [6]",also measured
"N.N.[Cl][Pt][Cl] [Cisplatin, cisplatin]",17,20.6,17.8,18.8,18,18.9,–,IC50 ([1]; Run 1): 12.6 µM; IC50 ([2]; Run 1): 19.5 µM
C=CCOC(=O)c1cn(C2CC2)c2c(OC)c(N3C[C@@H]4CCCN[C@@H]4C3)c(F)cc2c1=O [C‐moxi],> 100,> 100,> 100,> 100,> 100,> 100,–,"IC50 ([1]; Homo sapiens, Run 1): > 100 µM; Remainder ([3]; C-moxi 10 µM, 100 % minus extracellular and wash): 16.4%; Uptake ([3]; C-moxi 10 µM, incubation OD600 0.1): 3.31 nmol OD600-1; Extracellular [3, 10]: 82.7%; Wash [3, 10]: 0.9%; internalisation (bacterial uptake) of prodrug ([3]; C‐moxi added at 10 μM, 15 min at 37 °C, exponential growth, iron-limited, micro-aerobic): 16%; concentrations at which no antibacterial activity is seen [4, 11]: < 10 µM; times less toxic than the parent antibacterial Moxi ([4]; bacterial assays, E. coli K12): ~300; solubility ([5]; bacterial growth assay medium, read-out: solubility limit): 500 µM; IC50 ([2]; Homo sapiens, Run 1): > 100 µM"
"CC(=O)N(O)CCCCCNC(=O)CCC(=O)N(O)CCCCCNC(=O)CCC(=O)N(O)CCCCCN [DFO, desferrioxamine B]",–,–,–,–,–,–,does not improve growth,–
"O=C(O)c1cccc(O)c1O [DHB, 2,3‐dihydroxybenzoic acid]",–,–,–,–,–,–,improve growth,–
[Cl][Fe]([Cl])[Cl] [FeCl3],–,–,–,–,–,–,–,change of overall growth compared to no addition [7]: tenfold
"COc1c(N2C[C@@H]3CCCN[C@@H]3C2)c(F)cc2c(=O)c(C(=O)O)cn(C3CC3)c12 [Moxi, moxifloxacin]",> 100,> 100,> 100,> 100,> 100,> 100,–,"difference between C‐moxi and DMSO incubations (in words) [8]: no significant difference between incubations; IC50 ([1]; Homo sapiens, Run 1): > 100 µM; concentrations at which no antibacterial activity is observed [4, 11]: < 10 nM; IC50 ([2]; Homo sapiens, Run 1): > 100 µM"
C=CCOC(=O)N1CCC[C@H]2CN(c3c(F)cc4c(=O)c(C(=O)O)cn(C5CC5)c4c3OC)C[C@H]21 [N‐moxi],–,–,–,–,–,–,–,"concentrations at which no antibacterial activity is seen [4, 11]: < 10 µM; solubility ([5]; 10 % DMSO in aqueous MOPS buffer, HPLC kinetics): poor solubility"
O=C(NCCCC[C@H](NC(=O)c1cccc(O)c1O)C(=O)O)c1cccc(O)c1O [azotochelin],–,–,–,–,–,–,improve growth,–
O=C(O)CC(O)(CC(=O)O)C(=O)O [citrate],–,–,–,–,–,–,improve growth,–
